One data set has as its system SARS-COV-2. As to the kind of experiment: microbe, parasite or virus in culture. Format: cell-based. The arrangement: SI (Selectivity Index, CC50/IC50): unit not given here. To be noted: for SI (Selectivity Index, CC50/IC50): SARS-COV-2, values >50 assumed to be 50; for IC50: read-out: SARS-COV-2 inhibition (IC50).
Another data set is described as follows: in vitro. To be noted: African green monkey.
[1] abbreviates: Severe acute respiratory syndrome coronavirus 2, Vero cells, 24 hours infection.
Setting [2] is: Severe acute respiratory syndrome coronavirus 2, Vero, 24 h.

Structures can show the parent of a compound that is named as a salt. Where two headings read alike, the source gives them in different places.

For `COc1cc2cc3c(c(-c4cnc(N(C)C)nc4)c2cc1OC)C(=O)OC3` [Example 11, 9-(2-(dimethylamino)pyrimidin-5-yl)-6,7-dimethoxynaphtho[2,3-c]furan-1(3H)-one], the “SI (Selectivity Index, CC50/IC50)” value in the data set with SARS-COV-2 came out at 309.03. Also, in the data set on SARS-COV-2 (setting [1]), the concentration for half-maximal inhibition (IC50) worked out at 0.16 µM. This compound yielded a CC50 in the data set “in vitro” greater than 50 µM.
Take `COc1cc2cc3c(c(-c4ccc(N(C)CC5CC5)nc4)c2cc1OC)C(=O)OC3.Cl` [Example 183, 9-(6-((cyclopropylmethyl)(methyl)amino)pyridin-3-yl)-6,7-dimethoxynaphtho[2,3-c]furan-1(3H)-one]: the “SI (Selectivity Index, CC50/IC50)” value in the data set with SARS-COV-2 was determined as 124.83. Besides, the IC50 in the data set on SARS-COV-2 (setting [2]) is 0.4 µM. The same compound gave a CC50 in “in vitro” greater than 50 µM.
Turning to `COc1cc2cc3c(c(-c4ccc(C(=O)c5ccccc5)s4)c2cc1OC)C(=O)OC3` [Example 53], the “SI (Selectivity Index, CC50/IC50)” value in the data set with SARS-COV-2 came to 19.94. Besides, the IC50 in the data set on SARS-COV-2 (setting [1]) is 2.51 µM. The CC50 in the data set “in vitro” was greater than 50 µM.
On the same counts, the results for `COc1cc2cc3c(c(-c4cc(C)nc5c(OC)cccc45)c2cc1OC)C(=O)OC3` [Example 149, 6,7-dimethoxy-9-(8-methoxy-2-methylquinolin-4-yl)naphtho[2,3-c]furan-1(3H)-one] are 1.0, greater than 50 µM and greater than 50 µM.
In the same order, the values of `COc1cc2cc3c(c(-c4ccc(N(C)C5CCCCC5)nc4)c2cc1OC)C(=O)OC3` [Example 175, 9-(6-(cyclohexyl(methyl)amino)pyridin-3-yl)-6,7-dimethoxynaphtho[2,3-c]furan-1(3H)-one] are 42.02, 1.19 µM and greater than 50 µM.
With `CCCCN(C)c1ncc(-c2c3c(cc4cc(OC)c(OC)cc24)COC3=O)cn1` [Example 71, 9-(2-(butyl(methyl)amino)pyrimidin-5-yl)-6,7-dimethoxynaphtho[2,3-c]furan-1(3H)-one], in the data set on SARS-COV-2, the “SI (Selectivity Index, CC50/IC50)” value was 234.36. For the same compound, in the data set with SARS-COV-2 (setting [2]), the IC50 came out at 0.21 µM. In “in vitro”, this compound came in with a CC50 greater than 50 µM.
Take `CNc1ncc(-c2c3c(cc4cc(OC)c(OC)cc24)COC3=O)cn1` [Example 108, 6,7-dimethoxy-9-(2-(methylamino)pyrimidin-5-yl)naphtho[2,3-c]furan-1(3H)-one]: the “SI (Selectivity Index, CC50/IC50)” value in the data set on SARS-COV-2 came out at 18.03. Besides, the IC50 in the data set with SARS-COV-2 (setting [1]) was 2.77 µM. The compound further showed a CC50 in the data set “in vitro” greater than 50 µM.
On the same counts, the results for `COc1cc2cc3c(c(-c4ccc(N(C)CCc5cn(C)c6ccccc56)nc4)c2cc1OC)C(=O)OC3` [Example 196, 6,7-dimethoxy-9-(6-(methyl(2-(1-methyl-1H-indol-3-yl)ethyl)amino)pyridin-3-yl)naphtho[2,3-c]furan-1(3H)-one] are 20.54, 2.43 µM and greater than 50 µM.
In the same order, the values of `COc1cc2cc3c(c(-c4ccc(N(C)C5CC5)nc4)c2cc1OC)C(=O)OC3` [Example 171, 9-(6-(cyclopropyl(methyl)amino)pyridin-3-yl)-6,7-dimethoxynaphtho[2,3-c]furan-1(3H)-one] are 885.42, 0.06 µM and greater than 50 µM.
On the same counts, the results for `COc1cc2cc3c(c(-c4cnc(N(C)CC(OC)OC)nc4)c2cc1OC)C(=O)OC3` [Example 94, 9-(2-((2,2-dimethoxyethyl)(methyl)amino)pyrimidin-5-yl)-6,7-dimethoxynaphtho[2,3-c]furan-1(3H)-one] are 10.16, 4.92 µM and greater than 50 µM.
With `COc1cc2cc3c(c(-c4ccc(N(C)c5nc(SC)n(C)n5)nc4)c2cc1OC)C(=O)OC3.Cl` [Example 215, 6,7-dimethoxy-9-(6-(methyl(1-methyl-5-(methylthio)-1H-1,2,4-triazol-3-yl)amino)pyridin-3-yl)naphtho[2,3-c]furan-1(3H)-one], the “SI (Selectivity Index, CC50/IC50)” value in the data set with SARS-COV-2 was found to be 2.55. Besides, the concentration for half-maximal inhibition (IC50) in the data set on SARS-COV-2 (setting [2]) was determined as 19.6 µM. Moreover, in the data set “in vitro”, the CC50 was greater than 50 µM.
In the same order, the values of `CCC(C)CN(C)c1ccc(-c2c3c(cc4cc(OC)c(OC)cc24)COC3=O)cn1.Cl` (stereo not drawn) [Example 176, 6,7-dimethoxy-9-(6-(methyl(2-methylbutyl)amino)pyridin-3-yl)naphtho[2,3-c]furan-1(3H)-one] are 22.63, 2.21 µM and greater than 50 µM.
On the same counts, the results for `CCCN(CCO)c1ncc(-c2c3c(cc4cc(OC)c(OC)cc24)COC3=O)cn1.Cl` [Example 77, 9-(2-((2-hydroxyethyl)(propyl)amino)pyrimidin-5-yl)-6,7-dimethoxynaphtho[2,3-c]furan-1(3H)-one hydrochloride] are 1.58, 31.6 µM and greater than 50 µM.
`COc1cc2cc3c(c(-c4ccc(N(C)c5ccccc5)nc4)c2cc1OC)C(=O)OC3` [Example 222, 6,7-dimethoxy-9-(6-(methyl(phenyl)amino)pyridin-3-yl)naphtho[2,3-c]furan-1(3H)-one]: the “SI (Selectivity Index, CC50/IC50)” value in the data set on SARS-COV-2 came out at 162.21. In addition, the 50% inhibitory concentration (IC50) in the data set on SARS-COV-2 (setting [1]) amounted to 0.31 µM. Besides, in the data set “in vitro”, the CC50 is greater than 50 µM.
Take `COc1cc2cc3c(c(-c4ccc5nccc(Cl)c5c4)c2cc1OC)C(=O)OC3` [Example 138, 9-(4-chloroquinolin-6-yl)-6,7-dimethoxynaphtho[2,3-c]furan-1(3H)-one]: the “SI (Selectivity Index, CC50/IC50)” value in the data set with SARS-COV-2 is 1.33. Further, the half-maximal inhibitory concentration (IC50) in the data set on SARS-COV-2 (setting [1]) was determined as 37.7 µM. The compound further had a CC50 in the data set “in vitro” greater than 50 µM.
In the same order, the values of `COc1cc2cc3c(c(-c4ccc(N(C)C(C)C)nc4)c2cc1OC)C(=O)OC3` [Example 188, 9-(6-(isopropyl(methyl)amino)pyridin-3-yl)-6,7-dimethoxynaphtho[2,3-c]furan-1(3H)-one] are 1418.97, 0.04 µM and greater than 50 µM.
In the same order, the values of `COc1cc2cc3c(c(-c4cc5c(cc4OC(=O)OC(C)C)OCO5)c2cc1OC)C(=O)OC3` [Example 98, 6-(6,7-dimethoxy-3-oxo-1,3-dihydronaphtho[2,3-c]furan-4-yl)benzo[d][1,3]dioxol-5-yl isopropyl carbonate] are 3.18, 15.7 µM and greater than 50 µM.
On the same counts, the results for `COc1cc2cc3c(c(-c4cnc(N(C)C5CC5)nc4)c2cc1OC)C(=O)OC3` [Example 70, 9-(2-(cyclopropyl(methyl)amino)pyrimidin-5-yl)-6,7-dimethoxynaphtho[2,3-c]furan-1(3H)-one] are 92.84, 0.54 µM and greater than 50 µM.
On to `COCCN(C)c1ccc(-c2c3c(c(OC)c4cc(OC)c(OC)cc24)C(=O)OC3)cn1.Cl` [Example 265, 6,7,9-trimethoxy-4-(6-((2-methoxyethyl)(methyl)amino)pyridin-3-yl)naphtho[2,3-c]furan-1(3H)-one], for which the “SI (Selectivity Index, CC50/IC50)” value in the data set with SARS-COV-2 is given as 1.51. Moreover, in the data set with SARS-COV-2 (setting [2]), the 50% inhibitory concentration (IC50) came to 33 µM. The compound also had a CC50 in “in vitro” greater than 50 µM.
In the case of `CCC(C)CNc1ncc(-c2c3c(cc4cc(OC)c(OC)cc24)COC3=O)cn1` (stereo not drawn) [Example 64, 6,7-dimethoxy-9-(2-((2-methylbutyl)amino)pyrimidin-5-yl)naphtho[2,3-c]furan-1(3H)-one], in the data set with SARS-COV-2, the “SI (Selectivity Index, CC50/IC50)” value was 1.00. Also, the IC50 with SARS-COV-2 (setting [1]) was greater than 50 µM. The compound further yielded a CC50 in “in vitro” greater than 50 µM.
Regarding `COc1cc2cc3c(c(-c4cnc(N5C[C@H](C)O[C@@H](C)C5)nc4)c2cc1OC)C(=O)OC3` [Example 62, 9-(2-((2S,6S)-2,6-dimethylmorpholino)pyrimidin-5-yl)-6,7-dimethoxynaphtho[2,3-c]furan-1(3H)], in the data set on SARS-COV-2, the “SI (Selectivity Index, CC50/IC50)” value was 1.00. In addition, the IC50 in the data set on SARS-COV-2 (setting [1]) was greater than 50 µM. In “in vitro”, the CC50 was greater than 50 µM.
`COc1cc2cc3c(c(-c4ccc(N5CC(C)CC(C)C5)nc4)c2cc1OC)C(=O)OC3` (stereo not drawn) [Example 127, 9-(6-(3,5-dimethylpiperidin-1-yl)pyridin-3-yl)-6,7-dimethoxynaphtho[2,3-c]furan-1(3H)-one]: in the data set on SARS-COV-2, the “SI (Selectivity Index, CC50/IC50)” value worked out at 45.29. The half-maximal inhibitory concentration (IC50) in the data set on SARS-COV-2 (setting [1]) is 1.1 µM. Further, in the data set “in vitro”, the CC50 was greater than 50 µM.
On the same counts, the results for `CCN(CC)c1ncc(-c2c3c(cc4cc(OC)c(OC)cc24)COC3=O)cn1` [Example 74, 9-(2-(diethylamino)pyrimidin-5-yl)-6,7-dimethoxynaphtho[2,3-c]furan-1(3H)-one] are 98.94, 0.51 µM and greater than 50 µM.
`COc1cc2cc3c(c(-c4ccc5[nH]ccc5c4)c2cc1OC)C(=O)OC3` [Example 34, 9-(1H-indol-5-yl)-6,7-dimethoxynaphtho[2,3-c]furan-1(3H)-one]: in the data set on SARS-COV-2, the “SI (Selectivity Index, CC50/IC50)” value was 12.40. In addition, the IC50 in the data set on SARS-COV-2 (setting [1]) came to 4.03 µM. For the same compound, the CC50 in “in vitro” was greater than 50 µM.
In the case of `CCCN(CC1CC1)c1ncc(-c2c3c(cc4cc(OC)c(OC)cc24)COC3=O)cn1` [Example 105, 9-(2-((cyclopropylmethyl)(propyl)amino)pyrimidin-5-yl)-6,7-dimethoxynaphtho[2,3-c]furan-1(3H)-one hydrochloride], the “SI (Selectivity Index, CC50/IC50)” value with SARS-COV-2 was 9.56. For the same compound, the IC50 in the data set on SARS-COV-2 (setting [2]) amounted to 5.23 µM. The same compound returned a CC50 in “in vitro” greater than 50 µM.
As for `COCCN(C)c1ccc(-c2c3c(cc4cc(OC)c(OC)cc24)COC3=O)cc1` [Example 256, 6,7-dimethoxy-9-(4-((2-methoxyethyl)(methyl)amino)phenyl)naphtho[2,3-c]furan-1(3H)-one], the “SI (Selectivity Index, CC50/IC50)” value with SARS-COV-2 worked out at 82.38. The IC50 in the data set on SARS-COV-2 (setting [1]) is 0.61 µM. Besides, in “in vitro”, the CC50 was greater than 50 µM.
`COc1cc2cc3c(c(-c4cnc(N5CCCC(O)C5)nc4)c2cc1OC)C(=O)OC3.Cl` (stereo not drawn) [Example 80]: the “SI (Selectivity Index, CC50/IC50)” value in the data set with SARS-COV-2 came out at 4.21.
On to `COc1cc2cc3c(c(-c4cnc(N(C)c5ccc(C)c(C)c5)nc4)c2cc1OC)C(=O)OC3.Cl` [Example 213, 9-(2-((3,4-dimethylphenyl)(methyl)amino)pyrimidin-5-yl)-6,7-dimethoxynaphtho[2,3-c]furan-1(3H)-one], for which, in the data set with SARS-COV-2, the “SI (Selectivity Index, CC50/IC50)” value was 2.81 and the concentration for half-maximal inhibition (IC50) came to 4.41 µM.
